Where two headings read alike, the source gives them in different places.
Legend:
[1] = test system: PluxC-gfp reporter in V. parahaemolyticus; test: PluxC-gfp reporter in V. parahaemolyticus strains; conditions: Vibrio parahaemolyticus
LuxR = LuxR (Vibrio harveyi, UniProt P21308); test: E. coli bioassay expressing LuxR (IPTG-inducible plasmid); format: cell-based, V. campbellii; design: expressed in transfected cells; host or cells: E. coli DH10B with pMMB67EH-kanR derivative and pJV064; conditions: 25 μM PTSP
Description: (§1) We hypothesized that there were several possible reasons for the observed difference in PTSP inhibition in the various Vibrio species, including but not limited to: 1) differences in LuxR-inhibitor interaction(s), 2) differences in diffusion of the inhibitor across the membranes, or 3) stability of the inhibitor in the cell and/or cell culture. To examine PTSP activity in a common strain background, we cloned the luxR gene from each Vibrio species into a plasmid under control of an IPTG-inducible promoter and assayed the effect of PTSP against these proteins in the E. coli bioassay. […] We conclude that the differences in PTSP activity in Vibrio species is due to differences in interaction between PTSP and the LuxR-type protein in each Vibrio.
(§2) In E. coli assays expressing the five different LuxR-type proteins (luxR, smcR, opaR, vcpR, hapR), slight changes to the protocol were implemented. The luxR genes were cloned under control of the IPTG-inducible Ptac promoter in plasmid pMMB67EH-kanR. […] Strains expressing hapR or smcR required 50 μM IPTG to observe activation of the GFP reporter; IPTG was not added to strains expressing luxR, vcpR, or opaR.

V. campbellii LuxR = biological target: T1, V. campbellii LuxR (Vibrio harveyi, UniProt P21308); test: qRT-PCR and western blots in wild-type V. campbellii; format: cell-based
T1 construct: expressed in transfected cells; host or cells: E. coli DH10B with pKM699 and reporter pJV064
Description: The Qstatin-treated regulon overlapped with the SmcR regulon by more than 50%, with similar gene expression fold-changes. […] This is important to note because LuxR and HapR proteins are known to autorepress their own expression. To test the effects of adding inhibitors to V. campbellii LuxR, we added 10A, 10B, and 10C to wild-type V. campbellii and used qRT-PCR and western blots to examine the effects on luxR transcript and protein levels. We also examined the transcript levels for luxC and 05222 genes that are directly activated or repressed by LuxR, respectively.
All PCR reactions were performed using Phusion HF polymerase (NEB). T4 polynucleotide kinase (T4 PNK) used in EMSAs and all other enzymes were purchased from NEB and used according to manufacturer's instructions. Site-directed mutagenesis for construction of plasmids expressing mutant proteins was carried out using the Agilent QuikChange II XL Site-Directed Mutagenesis Kit. All oligonucleotides were purchased from Integrated DNA Technologies (IDT).ALL plasmid constructs were confirmed by DNA sequencing (Eurofins). Cloning details for plasmids are available upon request. Western blot analysis was performed as previously described (van Kessel et al., 2013b), except that new anti-LuxR antibodies were generated through Cocalico against purified LuxR protein. In addition, the western blots were probed with anti-RpoB (Neoclone).
Then cells were induced with 50 μM IPTG and grown under the same conditions until cells reached an OD600 of approximately 1, at which 5 mL of cells were collected by centrifugation and frozen in liquid N2. RNA was extracted using a Trizol/chloroform extraction protocol previously described (Rutherford et al., 2011). Quantitative real-time PCR (qRT-PCR) was performed as previously described (Chaparian et al., 2016). Samples were normalized to the internal standard hfq gene. The ΔΔCT values were used to analyze data from three independent biological replicates. Symbols on graphs represent the mean values and error bars represent the standard deviations. All statistical analysis was performed with functions from GraphPad Prism version 8.

Vibrio strains = test: luxCDABE reporter across five Vibrio species; conditions: each Vibrio strain except V. cholerae
HapR = test: E. coli bioassay expressing HapR (IPTG-inducible plasmid); format: cell-based, V. cholerae
Description: as §1
(§3) We therefore sought to determine if any of the four residues that differ between HapR and LuxR/SmcR in the putative ligand binding pocket are sufficient to render SmcR insensitive to PTSP. First, we introduced substitutions in SmcR to mimic the amino acid sequence of HapR: F75Y, I96L, […], and C170F. […] Next, we introduced single substitutions in HapR to mimic the amino acid present in SmcR: Y76F, L97I, I141V, and F171C.
as §2

[2] = test system: PluxC-gfp reporter in V. campbellii; test: PluxC-gfp reporter in V. campbellii strains; conditions: Vibrio campbellii
SmcR = SmcR (Vibrio vulnificus, UniProt Q9L8G8); test: E. coli bioassay expressing SmcR (IPTG-inducible plasmid); format: cell-based, V. vulnificus
Description: as §1, §3, §2

[3] = test system: V. campbellii protease activity; test: Protease assay (azocasein) in V. campbellii; conditions: 2.5 μM PTSP vs DMSO
V. campbellii = test: Growth of V. campbellii with inhibitor; format: cell-based; conditions: high concentrations
Description: Many sulfonamide-containing compounds are known to target the folate synthesis pathway in bacteria and inhibit growth (bacteriostatic), and thus these “sulfa drugs” have been used as broad-spectrum antibiotics for decades (Hammoudeh et al., 2013, Roland et al., 1979). […] We also tested the stability of the inhibitors in bacterial cultures and the timing of the inhibitory effect.

## O=S(=O)(c1cccs1)n1ccc(-c2ccccc2)n1 [Compound 10B]
[1]; read-out: IC50, V. parahaemolyticus RIMD2210633, luxCDABE reporter plasmid
  IC50: 280 nM
[1]; read-out: Inhibition (IC50) of the PluxC-gfp reporter, Vpara 12-297/B
  IC50: 320 nM
[1]; read-out: Inhibition (IC50) of the PluxC-gfp reporter, Vpara D4
  IC50: 270 nM
[1]; read-out: Inhibition (IC50) of the PluxC-gfp reporter, Vpara RIMD 2210633
  IC50: 170 nM
LuxR
  Inhibition of LuxR in E. coli bioassay: inhibited
V. campbellii LuxR; qRT-PCR, to levels in a ΔluxR strain
  luxC transcripts: significantly decreased
V. campbellii LuxR; qRT-PCR, wild-type cultures
  05222 transcripts: significantly increased
V. campbellii LuxR; western blot, wild-type V. campbellii
  LuxR protein level: visible increase
Vibrio strains
  IC50 values lower than Qstatin: ~10 fold
HapR; 25 μM PTSP
  Inhibition of HapR in E. coli bioassay: unresponsive
HapR; HapR Y76F, L97I, I141V, F171C, each alone
  Inhibition of HapR single substitutions: none of these substitutions alone were sufficient to make HapR sensitive
HapR; combination of Y76F and F171C
  Inhibition of HapR Y76F and F171C combination: did not result in PTSP inhibition
[2]; ATCC25920, read-out: Inhibition (IC50) of the PluxC-gfp reporter, Vcamp ATCC 25920
  IC50: 30 nM
[2]; read-out: IC50, V. campbellii BB120, luxCDABE
  IC50: 140 nM
[2]; read-out: IC50, V. campbellii, b235
  IC50: 350 nM
[2]; read-out: Inhibition (IC50) of the PluxC-gfp reporter, Vcamp HY01
  IC50: 100 nM
SmcR; 25 μM PTSP
  Inhibition of SmcR in E. coli bioassay: inhibited
SmcR; SmcR substitution C170F
  Inhibition of SmcR C170F: abolished PTSP inhibition
SmcR; SmcR substitution F75Y
  Inhibition of SmcR F75Y: abolished PTSP inhibition
SmcR; SmcR substitution I96L
  Inhibition of SmcR I96L: not significantly different from wild-type SmcR
SmcR; SmcR substitution V1401
  Inhibition of SmcR V1401: not significantly different from wild-type SmcR
[3]
  Protease activity of wild-type strain: significantly reduced protease activity
V. campbellii
  Growth rate or growth yield: did not alter growth rate or growth yield

Source: patent US20230257373A1, “QUORUM SENSING INHIBITORS AND METHODS OF USE” (priority 2020, published 2023)
